Results as given in ChEMBL document CHEMBL6134823, “Combination therapy and dual-target inhibitors based on cyclin-dependent kinases (CDKs): Emerging strategies for cancer therapy” (Eur J Med Chem, 2025).

Tests used:
[1] = target: Receptor tyrosine-protein kinase erbB-2 (Homo sapiens) (UniProt P04626); assay: Inhibition of HER2 (unknown origin) at 10 uM in presence of ATP relative to control
[2] = target: Cyclin-dependent kinase 1/cyclin B1 (Homo sapiens) (UniProt P06493+P14635); assay: Inhibition of CDK1/cyclin B1 (unknown origin) at 10 nM relative to control; type: protein-complex assay
Cyclin-dependent kinase 1/cyclin B1 (Homo sapiens), sequence (P06493 whole entry, looked up): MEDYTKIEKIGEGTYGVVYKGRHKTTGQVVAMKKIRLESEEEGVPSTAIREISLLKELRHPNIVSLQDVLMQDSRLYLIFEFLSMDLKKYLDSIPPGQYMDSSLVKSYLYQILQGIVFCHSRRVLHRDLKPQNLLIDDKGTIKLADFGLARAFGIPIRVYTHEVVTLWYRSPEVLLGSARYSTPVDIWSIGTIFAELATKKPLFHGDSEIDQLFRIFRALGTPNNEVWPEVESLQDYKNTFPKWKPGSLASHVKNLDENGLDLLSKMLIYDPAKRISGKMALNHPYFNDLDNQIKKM
Cyclin-dependent kinase 1/cyclin B1 (Homo sapiens), sequence (P14635 whole entry, looked up): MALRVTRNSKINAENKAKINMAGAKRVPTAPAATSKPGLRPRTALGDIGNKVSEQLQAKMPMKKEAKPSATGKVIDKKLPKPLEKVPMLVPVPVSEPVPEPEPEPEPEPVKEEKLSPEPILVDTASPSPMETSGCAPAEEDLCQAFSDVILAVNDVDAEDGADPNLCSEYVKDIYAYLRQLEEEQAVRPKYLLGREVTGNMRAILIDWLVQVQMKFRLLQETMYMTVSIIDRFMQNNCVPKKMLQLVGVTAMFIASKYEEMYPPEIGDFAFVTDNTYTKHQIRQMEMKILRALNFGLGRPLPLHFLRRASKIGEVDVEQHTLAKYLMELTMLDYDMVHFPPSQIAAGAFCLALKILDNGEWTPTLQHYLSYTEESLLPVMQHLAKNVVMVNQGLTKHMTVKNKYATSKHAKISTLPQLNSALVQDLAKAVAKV

[3] = tested on: A549; assay: Antiproliferative activity against human A549 cells assessed as reduction in cell viability incubated for 24 hrs by MTT assay; type: functional, cell-based; details: A549, 24 h
[4] = tested on: MCF7; assay: Antiproliferative activity against human MCF7 cells assessed as reduction in cell viability incubated for 24 hrs by MTT assay; type: functional, cell-based; details: MCF7, 24 h
[5] = tested on: HT-29; assay: Antiproliferative activity against human HT-29 cells assessed as reduction in cell viability incubated for 24 hrs by MTT assay; type: functional, cell-based; details: HT-29, 24 h
[6] = tested on: PANC-1; assay: Antiproliferative activity against human PANC-1 cells assessed as reduction in cell viability incubated for 24 hrs by MTT assay; type: functional, cell-based; details: PANC-1, 24 h
[7] = tested on: MDA-MB-231; assay: Cytotoxicity against human MDA-MB-231 cells; type: functional, cell-based
[8] = tested on: OVCAR-5; assay: Antiproliferative activity against human OVCAR-5 cells assessed as growth inhibition incubated for 48 hrs by SRB assay; type: functional, cell-based; details: OVCAR-5, 48 h
[9] = tested on: SK-OV-3; assay: Cytotoxicity against human SK-OV-3 cells assessed as inhibition of cell growth incubated for 72 hrs by MTT assay; type: functional, cell-based; details: SK-OV-3, 72 h
[10] = tested on: SUM-159-PT; assay: Cytotoxicity against human SUM159 cells; type: functional, cell-based
[11] = target: Amine oxidase [flavin-containing] A (Homo sapiens, UniProt P21397); assay: Inhibition of MAO-A (unknown origin) measured by MAO-GloTM method
[12] = target: Cyclin-dependent kinase 7 (Homo sapiens, UniProt P50613); assay: Inhibition of CDK7 (unknown origin)
Cyclin-dependent kinase 7, sequence (P50613 whole entry): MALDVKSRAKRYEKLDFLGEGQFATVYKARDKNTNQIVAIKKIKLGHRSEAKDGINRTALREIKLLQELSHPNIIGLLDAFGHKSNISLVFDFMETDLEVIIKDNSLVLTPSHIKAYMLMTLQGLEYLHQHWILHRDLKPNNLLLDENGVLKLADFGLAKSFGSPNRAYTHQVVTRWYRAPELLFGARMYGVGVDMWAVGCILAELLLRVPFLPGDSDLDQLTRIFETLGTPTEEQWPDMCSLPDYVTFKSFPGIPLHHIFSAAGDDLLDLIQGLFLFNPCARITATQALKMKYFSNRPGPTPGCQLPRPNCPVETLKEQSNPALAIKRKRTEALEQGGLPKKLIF

[13] = target: T1, Cyclin-dependent kinase 4 (Homo sapiens, UniProt P11802); assay: Inhibition of human CDK4 extracted from baculovirus infected Sf9 insect cells incubated for 1 hrs in presence of ATP by liquid scintillation counter analysis
T1 sequence (P11802 whole entry): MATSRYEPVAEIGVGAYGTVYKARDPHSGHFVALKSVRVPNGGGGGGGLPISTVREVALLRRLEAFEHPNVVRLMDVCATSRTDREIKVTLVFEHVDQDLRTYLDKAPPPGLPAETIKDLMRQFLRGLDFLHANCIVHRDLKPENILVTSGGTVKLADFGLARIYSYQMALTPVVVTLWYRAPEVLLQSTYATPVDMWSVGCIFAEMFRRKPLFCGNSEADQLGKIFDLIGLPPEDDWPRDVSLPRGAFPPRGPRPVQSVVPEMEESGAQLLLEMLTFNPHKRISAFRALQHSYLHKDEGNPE

[14] = target: Receptor-type tyrosine-protein kinase FLT3 (Homo sapiens, UniProt P36888); assay: Inhibition human recombinant FLT3
Receptor-type tyrosine-protein kinase FLT3, sequence (P36888 whole entry): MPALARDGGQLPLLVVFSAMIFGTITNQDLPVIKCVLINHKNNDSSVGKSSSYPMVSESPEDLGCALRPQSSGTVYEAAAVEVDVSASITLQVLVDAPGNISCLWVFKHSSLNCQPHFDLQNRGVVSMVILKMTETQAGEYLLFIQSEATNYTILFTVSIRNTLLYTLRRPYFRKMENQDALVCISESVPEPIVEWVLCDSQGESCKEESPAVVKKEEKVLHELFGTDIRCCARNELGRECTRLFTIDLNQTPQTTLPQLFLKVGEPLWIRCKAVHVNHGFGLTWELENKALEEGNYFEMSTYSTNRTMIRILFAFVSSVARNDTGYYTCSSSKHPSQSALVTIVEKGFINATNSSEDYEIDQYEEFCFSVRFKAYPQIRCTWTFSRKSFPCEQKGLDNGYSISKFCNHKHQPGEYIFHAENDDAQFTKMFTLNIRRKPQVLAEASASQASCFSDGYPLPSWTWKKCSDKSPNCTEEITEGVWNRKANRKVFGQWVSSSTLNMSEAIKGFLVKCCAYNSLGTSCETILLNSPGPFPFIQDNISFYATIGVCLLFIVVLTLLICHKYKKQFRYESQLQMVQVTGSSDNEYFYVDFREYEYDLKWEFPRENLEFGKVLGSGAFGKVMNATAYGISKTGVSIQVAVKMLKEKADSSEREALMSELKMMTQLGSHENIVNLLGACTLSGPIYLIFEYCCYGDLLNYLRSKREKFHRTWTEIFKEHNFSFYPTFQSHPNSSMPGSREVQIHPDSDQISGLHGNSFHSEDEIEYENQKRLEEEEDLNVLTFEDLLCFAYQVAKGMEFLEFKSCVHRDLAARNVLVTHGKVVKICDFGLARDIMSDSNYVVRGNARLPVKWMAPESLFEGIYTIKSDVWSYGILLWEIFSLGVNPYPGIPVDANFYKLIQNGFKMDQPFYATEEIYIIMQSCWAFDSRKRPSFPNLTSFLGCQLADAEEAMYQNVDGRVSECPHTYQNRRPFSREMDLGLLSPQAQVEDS

[15] = target: T1, Cyclin-dependent kinase 4; assay: Inhibition of CDK4 (unknown origin) at 1 uM relative to control
[16] = target: T2, Cyclin-dependent kinase 2 (Homo sapiens, UniProt P24941)
[17] = target: T3, Poly [ADP-ribose] polymerase 1 (Homo sapiens, UniProt P09874); assay: Inhibition of PARP1 (unknown origin)
T3 sequence (P09874 whole entry): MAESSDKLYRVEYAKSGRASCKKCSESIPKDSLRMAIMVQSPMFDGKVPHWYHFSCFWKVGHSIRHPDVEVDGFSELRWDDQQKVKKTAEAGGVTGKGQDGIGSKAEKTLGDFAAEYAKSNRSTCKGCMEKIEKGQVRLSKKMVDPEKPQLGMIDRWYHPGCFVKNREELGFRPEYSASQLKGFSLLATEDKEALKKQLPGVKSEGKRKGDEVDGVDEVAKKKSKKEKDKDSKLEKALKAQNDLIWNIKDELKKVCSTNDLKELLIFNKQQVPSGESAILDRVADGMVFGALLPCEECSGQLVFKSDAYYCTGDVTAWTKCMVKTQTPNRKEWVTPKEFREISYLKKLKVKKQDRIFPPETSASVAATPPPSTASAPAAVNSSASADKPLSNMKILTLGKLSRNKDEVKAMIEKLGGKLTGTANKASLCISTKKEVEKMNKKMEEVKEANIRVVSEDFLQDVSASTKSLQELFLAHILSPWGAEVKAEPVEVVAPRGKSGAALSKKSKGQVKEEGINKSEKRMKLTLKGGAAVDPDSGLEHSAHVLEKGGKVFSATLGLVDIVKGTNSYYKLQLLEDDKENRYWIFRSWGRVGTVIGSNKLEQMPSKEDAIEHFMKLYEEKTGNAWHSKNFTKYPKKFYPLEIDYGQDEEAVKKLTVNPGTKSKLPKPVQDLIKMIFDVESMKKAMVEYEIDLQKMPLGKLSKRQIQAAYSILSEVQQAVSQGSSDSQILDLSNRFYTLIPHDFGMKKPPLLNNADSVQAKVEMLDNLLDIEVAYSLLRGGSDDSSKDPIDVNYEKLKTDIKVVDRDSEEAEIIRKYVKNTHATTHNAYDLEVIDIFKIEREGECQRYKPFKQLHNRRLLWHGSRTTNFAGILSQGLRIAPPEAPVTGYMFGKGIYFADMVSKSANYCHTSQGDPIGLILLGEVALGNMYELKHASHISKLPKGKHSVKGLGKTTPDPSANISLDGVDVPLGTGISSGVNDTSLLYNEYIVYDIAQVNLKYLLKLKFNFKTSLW

[18] = tested on: MDA-MB-468; assay: Cytotoxicity against human MDA-MB-468 cells assessed as cell growth inhibition; type: functional, cell-based
[19] = target: Cyclin-dependent kinase 6 (Homo sapiens, UniProt Q00534)
Description: Inhibition of CDK6 (unknown origin))

[20] = tested on: MDA-MB-231; assay: Cytotoxicity against human MDA-MB-231 cells assessed as cell growth inhibition; type: functional, cell-based
[21] = tested on: BT-549; assay: Cytotoxicity against human BT-549 cells assessed as cell growth inhibition; type: functional, cell-based
[22] = target: Histone deacetylase 1 (Homo sapiens, UniProt Q13547)
Description: Inhibition of HDAC1 (unknown origin)

[23] = target: T2, Cyclin-dependent kinase 2; assay: Inhibition of CDK2 (unknown origin) by luminescence kinase assay
[24] = target: T4, Epidermal growth factor receptor (Homo sapiens, UniProt P00533); assay: Inhibition of EGFR (unknown origin) using Poly (Glu, Tyr) as substrate incubated for 60 mins in presence of ATP by Kinase-Glo Plus luminescence kinase assay relative to control
T4 sequence (P00533 whole entry): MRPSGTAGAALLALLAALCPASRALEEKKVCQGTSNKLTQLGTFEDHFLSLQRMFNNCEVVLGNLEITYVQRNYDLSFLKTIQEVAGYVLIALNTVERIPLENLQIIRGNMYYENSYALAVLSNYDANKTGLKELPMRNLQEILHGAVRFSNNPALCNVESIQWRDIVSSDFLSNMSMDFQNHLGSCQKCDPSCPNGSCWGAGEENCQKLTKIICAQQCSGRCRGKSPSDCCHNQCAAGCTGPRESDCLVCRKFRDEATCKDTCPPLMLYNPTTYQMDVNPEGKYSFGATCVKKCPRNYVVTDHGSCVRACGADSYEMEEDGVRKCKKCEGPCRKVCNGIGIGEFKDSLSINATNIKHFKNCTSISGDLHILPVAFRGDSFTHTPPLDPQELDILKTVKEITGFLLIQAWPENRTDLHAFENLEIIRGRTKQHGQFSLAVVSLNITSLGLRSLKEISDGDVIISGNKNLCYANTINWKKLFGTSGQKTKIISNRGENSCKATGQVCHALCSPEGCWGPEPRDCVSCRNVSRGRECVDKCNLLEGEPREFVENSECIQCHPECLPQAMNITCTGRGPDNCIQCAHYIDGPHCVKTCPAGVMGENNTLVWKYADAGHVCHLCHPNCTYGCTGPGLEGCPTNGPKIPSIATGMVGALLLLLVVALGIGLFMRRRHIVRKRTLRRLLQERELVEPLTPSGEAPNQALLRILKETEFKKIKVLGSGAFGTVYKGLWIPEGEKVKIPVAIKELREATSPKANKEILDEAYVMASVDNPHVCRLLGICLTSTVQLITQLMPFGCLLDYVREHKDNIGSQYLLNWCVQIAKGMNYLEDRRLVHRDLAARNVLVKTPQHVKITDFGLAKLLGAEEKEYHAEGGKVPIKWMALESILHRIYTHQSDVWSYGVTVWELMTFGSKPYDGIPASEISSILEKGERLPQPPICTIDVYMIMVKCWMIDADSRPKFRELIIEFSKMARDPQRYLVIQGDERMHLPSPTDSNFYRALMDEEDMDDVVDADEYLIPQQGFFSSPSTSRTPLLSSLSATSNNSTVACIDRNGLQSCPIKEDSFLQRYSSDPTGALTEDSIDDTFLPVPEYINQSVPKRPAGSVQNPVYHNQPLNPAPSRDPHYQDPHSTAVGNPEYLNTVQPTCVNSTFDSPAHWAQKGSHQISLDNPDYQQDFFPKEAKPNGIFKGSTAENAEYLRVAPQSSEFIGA

[25] = target: T4, Epidermal growth factor receptor
[26] = target: Extracellular calcium-sensing receptor (Homo sapiens, UniProt P41180); assay: Inhibition of CASR (unknown origin)
[27] = target: T5, Cyclin-dependent kinase 9 (Homo sapiens, UniProt P50750)
T5 sequence (P50750 whole entry): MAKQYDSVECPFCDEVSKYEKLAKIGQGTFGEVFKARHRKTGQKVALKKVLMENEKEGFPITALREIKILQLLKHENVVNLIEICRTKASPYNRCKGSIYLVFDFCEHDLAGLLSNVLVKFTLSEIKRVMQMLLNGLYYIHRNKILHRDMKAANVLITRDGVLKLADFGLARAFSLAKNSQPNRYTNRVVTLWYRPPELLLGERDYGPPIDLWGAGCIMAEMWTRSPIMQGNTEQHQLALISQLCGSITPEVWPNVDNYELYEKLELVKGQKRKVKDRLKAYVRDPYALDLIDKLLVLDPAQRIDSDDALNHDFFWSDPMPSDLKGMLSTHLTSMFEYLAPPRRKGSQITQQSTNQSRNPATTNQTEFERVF
Description: Inhibition of CDK9 (unknown origin) by ADP-Glo kinase assay

[28] = tested on: MDA-MB-231; assay: Cytotoxicity against human MDA-MB-231 cells assessed as reduction in cell growth incubated for 72 hrs by MTT assay; type: functional, cell-based; details: MDA-MB-231, 72 h
[29] = tested on: MCF7; assay: Cytotoxicity against human MCF7 cells assessed as reduction in cell growth incubated for 72 hrs by MTT assay; type: functional, cell-based; details: MCF7, 72 h
[30] = target: T5, Cyclin-dependent kinase 9; assay: Inhibition of CDK9 (unknown origin)
[31] = tested on: MCF7; assay: Cytotoxicity against human MCF7 cells assessed as reduction in cell growth incubated fro 72 hrs by MTT assay; type: functional, cell-based; details: MCF7, 72 h
[32] = tested on: HepG2; assay: Cytotoxicity against human HepG2 cells assessed as reduction in cell growth incubated fro 72 hrs by MTT assay; type: functional, cell-based; details: HepG2, 72 h
[33] = tested on: A549; assay: Cytotoxicity against human A549 cells assessed as reduction in cell growth incubated fro 72 hrs by MTT assay; type: functional, cell-based; details: A549, 72 h
[34] = tested on: HCT-116; assay: Cytotoxicity against human HCT-116 cells assessed as reduction in cell growth incubated fro 72 hrs by MTT assay; type: functional, cell-based; details: HCT-116, 72 h
[35] = tested on: A549; assay: Antiproliferative activity against human A549 cells; type: functional, cell-based
[36] = tested on: HeLa; assay: Antiproliferative activity against human HeLa cells; type: functional, cell-based
[37] = Antiproliferative activity against human PC-3 cells; type: functional, cell-based
[38] = tested on: SK-OV-3; assay: Antiproliferative activity against human SK-OV-3 cells; type: functional, cell-based
[39] = target: Aurora kinase A (Homo sapiens, UniProt O14965); assay: Inhibition of Aurora A (unknown origin)
[40] = target: Cyclin-dependent kinase 5 (Homo sapiens, UniProt Q00535)
Description: Inhibition of CDK5 (unknown origin)

[41] = target: T2, Cyclin-dependent kinase 2; remark: listed apart in the source
Description: Inhibition of CDK2 (unknown origin) by mobility shift assay

[42] = target: Histone deacetylase 2 (Homo sapiens, UniProt Q92769)
Description: Inhibition of HDAC2 (unknown origin)

[43] = target: T3, Poly [ADP-ribose] polymerase 1; assay: Inhibition of PARP-1 (unknown origin) incubated for 60 mins by chemiluminescent assay
[44] = tested on: K562; assay: Growth inhibition of human K562 cells incubated for 72 hrs by SRB assay; type: functional
[45] = tested on: MCF7; assay: Growth inhibition of human MCF-7 cells incubated for 72 hrs by SRB assay; type: functional

O=C(Nc1ccc2c(ccn2C(=O)c2cccc(F)c2)c1)c1ccnnc1
inhibition [1]: 52%
inhibition [2]: 51%

Cc1ccc(NNC(=O)[C@H]2CCCN2C(=O)Nc2ccc(C(F)(F)F)cc2)cc1
IC50 [3]: 3.9 µM
IC50 [4]: 3.7 µM
IC50 [5]: 4.2 µM
IC50 [6]: 4.1 µM

Cc1nc2c(F)cc(-c3nc(Nc4ccc(N5CCN(C(=O)c6cc(Cc7n[nH]c(=O)c8ccccc78)ccc6F)CC5)cn4)ncc3F)cc2n1C(C)C
IC50 [7]: 3.61 µM
IC50 [8]: 0.758 µM
IC50 [9]: 0.548 µM
IC50 [10]: 0.435 µM

O=C(Nc1ccc2[nH]ncc2c1)c1cccc(Cl)c1Cl
IC50 [11]: > 10 µM

CN(C)C/C=C/C(=O)Nc1cccc(C(=O)Nc2cccc(Nc3ncc(Cl)c(-c4c[nH]c5ccccc45)n3)c2)c1
IC50 [12]: 0.019 µM

CCN1CCN(c2ccc(Nc3ncc(F)c(-c4cnc5cnn(C(C)C)c5c4)n3)cc2F)CC1
IC50 [13]: 0.007 µM
IC50 [14]: 0.011 µM

O=C(Nc1cc(-c2ccc3nc4c([nH]c5ccccc54)c(N4CCOCC4)c3c2)ccn1)C1CC1
inhibition [15]: 5.31%
IC50 [16]: 3.91 µM

Cc1cc(=O)n(C2CCCC2)c2nc(NCCC3CCN(C(=O)c4cc(Cc5n[nH]c(=O)c6ccccc56)ccc4F)CC3)ncc12
IC50 [17]: 0.041 µM
IC50 [18]: 2.81 µM
IC50 [19]: 0.127 µM
IC50 [20]: 1.96 µM
IC50 [21]: 2.37 µM

O=C(CCCCCCC(=O)Nc1cccc(C(=O)Nc2cccc(Nc3ncc(Cl)c(-c4c[nH]c5ccccc45)n3)c2)c1)NO
IC50 [22]: 0.248 µM
IC50 [12]: 0.893 µM

O=C(c1ccc2ccccc2c1)c1cn(-c2ccccc2)nc1C1=Nn2c(S)nnc2SC1
IC50 [23]: 0.0896 µM
IC50 [24]: 0.165 µM

Cc1cc(C)cc(NNC(=O)[C@H]2CCCN2C(=O)Nc2ccc(C(F)(F)F)cc2)c1
IC50 [16]: 0.023 µM
IC50 [25]: 0.087 µM

C[C@@H](NCCCc1cccc(C(F)(F)F)c1)c1cccc2ccccc12
IC50 [26]: 2.8 µM

CCN1CCN(c2ccc(Nc3ncc(F)c(-c4cnc5cnn(C(C)C)c5c4)n3)cc2)CC1
IC50 [13]: 0.01 µM
IC50 [14]: 0.008 µM

COC[C@@H](C)N[C@H]1CC[C@H](Nc2cc(-c3cccc(NCC4(C#N)CCOCC4)n3)c(Cl)cn2)CC1
IC50 [27]: 0.00051 µM

O=C(CC(=O)Nc1cccc(C(=O)Nc2cccc(Nc3ncc(Cl)c(-c4c[nH]c5ccccc45)n3)c2)c1)NO
IC50 [28]: 23 µM
IC50 [29]: 18.1 µM

CCOc1ccc(C2C(C#N)=C(N)OC3C2C(C)=NN3c2ccc(Cl)cc2)cc1 (centres undefined)
IC50 [30]: 1.26 nM
IC50 [25]: 0.00021 µM

N[C@H]1CCN(c2c3cc(-c4ccnc(NC(=O)C5CC5)c4)ccc3nc3c2[nH]c2ccccc23)C1
inhibition [15]: 41.1%
IC50 [31]: 1.12 µM
IC50 [32]: 1.95 µM
IC50 [16]: 0.145 µM
IC50 [33]: 0.949 µM
IC50 [34]: 0.821 µM

CCOc1ccc(/C=C2/C(=O)N(c3ccc(Cl)cc3)N=C2C)cc1
IC50 [30]: 0.077 nM
IC50 [25]: 0.00012 µM

Cc1n[nH]c2c1C(c1ccc(F)cc1)C(C#N)=C(N)O2 (centres undefined)
IC50 [35]: 1.8 µM
IC50 [36]: 1.9 µM
IC50 [37]: 2.8 µM
IC50 [38]: 2.03 µM

CC[C@H](CO)Nc1nc(NCc2ccccc2N)c2[nH]nc(C(C)C)c2n1
IC50 [39]: 0.4 µM
IC50 [40]: 0.26 µM
IC50 [16]: 0.07 µM

Cc1cc(C)cc(NNC(=O)[C@H]2CCCN2C(=O)Nc2ccc(Cl)cc2)c1
IC50 [16]: 0.015 µM
IC50 [25]: 0.096 µM

O=C1Nc2ccccc2/C1=C1/Nc2ccccc2C1=O [INDIRUBIN]
IC50 [41]: 0.003 µM

O=C(c1ccc2ccccc2c1)c1cn(-c2ccccc2)nc1C1=Nn2cnnc2SC1
IC50 [24]: 0.0647 µM

Nc1ccc(F)cc1NC(=O)c1ccc(CNC(=O)/C=C/c2cccnc2)cc1
IC50 [42]: 0.093 µM

Cc1nnc2n1N=C(c1ccccc1OCC(=O)NCCCNC(=O)COc1ccccc1C1=Nn3c(C)nnc3SC1)CS2
IC50 [43]: 0.00137 µM

CCCCCCCNc1nc(NCc2ccccc2)c2n[nH]c(C(C)C)c2n1
GI50 [44]: 17 µM
IC50 [16]: > 1000 µM
GI50 [45]: 21.4 µM
